The subject of one assay is cancer cell. Put plainly: Cell viability assay (resazurin). The following applies: 72 h; 3 days with compound, resazurin fluorescence; cell line not named. Type of assay: cell-based. As to the method: The utility of the compounds of the present invention can be illustrated, for example, by their activity in vitro in the cancer cell clonogenic and/or viability assay described below. The link between activity in tumor cell clonogenic assay and anti-tumor activity in the clinical setting has been well established in the art (e.g. see ref Silverstini et al Stem Cells 1993, 11(6), 258-35).
Cells are seeded into 96 well plates (1000-3000 cells/well) in DMEM GlutaMAX™ or other suitable media dependent on cell line and incubated overnight in 5% CO2, 37° C. Thereafter cells are treated with compound or vehicle and left in incubator for 3 days until staining with resazurin. Cells are incubated in resazurin (diluted in suitable media) at 37° C. for 2 hours before measuring the fluorescence (Ex544/Em590).
The compounds to be tested are nano-dispensed in 11 concentrations, directly in 384-well cell plates, with a final DMSO concentration <1%. Cells are seeded in cell plates, pre-dispensed with compounds, 50 μl/well (600-1200 cells/well). After 3 days culture in 5% CO2, 37° C., resazurin diluted in PBS is added, 10 μl/well, and cells are incubated 3 hours before measuring fluorescence (Ex544/Em590).

In a further assay the target is MTH1 (Homo sapiens, UniProt P36639). Put plainly: MTH1 enzymatic assay and IC50 value determination (malachite green, 96- and 384-well format). In kind it is biochemical. The following applies: hydrolysis of dGTP (100 μM), MTH1 6 nM, pyrophosphatase-coupled malachite green, 15 minutes at 22° C. As to the method: MTH1 Enzymatic Assay and IC50 Value Determination
MTH1 catalyzes the hydrolysis of dGTP to dGMP and PPi. By coupling the reaction to pyrophosphatase added in excess PPi is converted to Pi that can be detected by using the malachite green assay reagent. Two different formats were used for IC50 determinations in the enzymatic assay, 96- and 384-well format. 96-Well Method:
Briefly, the compound to be analyzed is diluted in DMSO in a 1:3 dilution series generating 12 different compound concentrations giving a final DMSO concentration of 1% in the assay well. MTH1 diluted in assay buffer (100 mM Tris-acetate, 40 mM NaCl, 10 mM magnesium acetate, 1 mM DTT and 0.005% Tween 20) fortified with E. coli pyrophosphatase (0.2 U/ml) is added to a final concentration of 6 nM. dGTP diluted in assay buffer is added to a final concentration of 100 μM. The reaction mixture is incubated for 15 minutes at 22° C. To 100 μl reaction mixture, 25 μl Malachite green assay regent (0.095% Malachite green in 17% H2SO4, 1.5% Ammonium molybdate, 0.17% Tween 20) is added, followed by incubation with shaking for 15 minutes at 22° C. The absorbance of the assay plate is read at 630 nm using a Hidex Sense Multilabel plate reader. The IC50 value is determined by fitting a dose response curve to the data points using nonlinear regression analysis and the equation Y=Bottom+(Top−Bottom)/(1+10^((Log IC50−X)*HillSlope)), where Y is the read absorbance at 630 nm and X is log [compound].
The compounds to be tested are nano-dispensed, in 11 concentrations, directly in assay plates, with a final DMSO concentration <1%. The protocol and the reaction mixture are the same as for the 96-well assay, with a total reaction volume of 50 μl/well to which 10 μl of Malachite green reagent is added. All additions to the assay plates are made with multidrop.

Drawing on patent publication US10179790B2 (THOMAS HELLEDAYS STIFTELSE FOR MEDICINSK FORSKNING, priority 2014, dated 2019), this text covers IC50 for 25 compounds.

pIC50: −log10 of the molar value. Bounds are passed on as bounds.

The pIC50 is the negative decadic logarithm of the IC50, by convention in mol/L.

For `Cc1c(Cl)cccc1-c1cc(NCCc2ccc(S(C)(=O)=O)cc2)nc(N)n1` [Example 1, 6-(3-chloro-2-methylphenyl)-4-N-[2-(4-methanesulfonylphenyl)ethyl]pyrimidine-2,4-diamine], the results for the pIC50 in the assay on cancer cell and at MTH1 were > 6.30 and > 6.70, respectively.
The corresponding values for `Cc1cccc(-c2cc(NCCCNc3ccc(S(N)(=O)=O)cn3)nc(N)n2)c1C` [Example 2, 6-[(3-{[2-amino-6-(2,3-dimethylphenyl)pyrimidin-4-yl]amino}propyl)amino]pyridine-3-sulfonamide] are > 6.30 and > 6.70.
On to `CNS(=O)(=O)c1ccc(NCCNc2cc(-c3cccc(C)c3C)nc(N)n2)nc1` [Example 3, 6-[(2-{[2-amino-6-(2,3-dimethylphenyl)pyrimidin-4-yl]amino}ethyl)amino]-N-methylpyridine-3-sulfonamide], for which the pIC50 is > 6.30 in the assay with cancer cell and > 6.70 against MTH1.
For `Cc1cccc(-c2cc(NCCNc3ccc(S(C)(=O)=O)nc3)nc(N)n2)c1C` [Example 13, 6-(2,3-dimethylphenyl)-4-N-{2-[(6-methanesulfonylpyridin-3-yl)amino]ethyl}pyrimidine-2,4-diamine], the pIC50 in the assay with cancer cell is > 6.30; on MTH1 it was > 6.70.
For `Cc1cccc(-c2cc(NCCNc3nccc(C(N)=O)n3)nc(N)n2)c1C` [Example 16, 2-[(2-{[2-amino-6-(2,3-dimethylphenyl)pyrimidin-4-yl]amino}ethyl)amino]pyrimidine-4-carboxamide], the pIC50 in the assay on cancer cell was > 6.30; against MTH1 it was > 6.70.
As for `CC(=O)Nc1ccc(CCNc2cc(-c3cccc(C)c3C)nc(N)n2)cc1` [Example 19, N-[4-(2-{[2-amino-6-(2,3-dimethylphenyl)pyrimidin-4-yl]amino}ethyl)phenyl]acetamide], the pIC50 with cancer cell is > 6.30; against MTH1, > 6.70.
As for `Cc1cccc(-c2cc(NCCc3ccc(NS(C)(=O)=O)cc3)nc(N)n2)c1C` [Example 20, N-[4-(2-{[2-amino-6-(2,3-dimethylphenyl)pyrimidin-4-yl]amino}ethyl)phenyl]methanesulfonamide], the values for the pIC50 with cancer cell and against MTH1 were > 6.30 and > 6.70, respectively.
On to `CNS(=O)(=O)c1ccc(NCCNc2cc(-c3cccc(C)c3C)nc(N)n2)cc1` [Example 21, 4-[(2-{[2-amino-6-(2,3-dimethylphenyl)pyrimidin-4-yl]amino}ethyl)amino]-N-methylbenzene-1-sulfonamide], for which the values for the pIC50 in the assay with cancer cell and on MTH1 were > 6.30 and > 6.70, respectively.
As to `CC(=O)Nc1ccc(NCCNc2cc(-c3cccc(C)c3C)nc(N)n2)cc1C` [Example 22, N-{4-[(2-{[2-amino-6-(2,3-dimethylphenyl)pyrimidin-4-yl]amino}ethyl)amino]-2-methylphenyl}acetamide], the values for the pIC50 with cancer cell and against MTH1 were > 6.30 and > 6.70, respectively.
As to `Cc1cccc(-c2cc(NCCNc3ccc4c(c3)NC(=O)CO4)nc(N)n2)c1C` [Example 23, 6-[(2-{[2-amino-6-(2,3-dimethylphenyl)pyrimidin-4-yl]amino}ethyl)amino]-3,4-dihydro-2H-1,4-benzoxazin-3-one], the pIC50 in the assay with cancer cell is > 6.30; at MTH1, > 6.70.
On to `Cc1cccc(-c2cc(NCCNc3ccccc3C(N)=O)nc(N)n2)c1C` [Example 24, 2-[(2-{[2-amino-6-(2,3-dimethylphenyl)pyrimidin-4-yl]amino}ethyl)amino]benzamide], for which the pIC50 in the assay on cancer cell is > 6.30; on MTH1, > 6.70.
In the same order, the values of `Cc1cccc(-c2cc(NCCOc3ccc(C(N)=O)cn3)nc(N)n2)c1C` [Example 26, 6-(2-{[2-amino-6-(2,3-dimethylphenyl)pyrimidin-4-yl]amino}ethoxy)pyridine-3-carboxamide] are > 6.30 and > 6.70.
In the same order, the values of `CCOC(=O)c1ccc(NCCNc2cc(-c3cccc(C)c3C)nc(N)n2)nc1` [Example 28, ethyl 6-[(2-{[2-amino-6-(2,3-dimethylphenyl)pyrimidin-4-yl]amino}ethyl)amino]pyridine-3-carboxylate] are > 6.30 and > 6.70.
In the case of `Cc1cccc(-c2cc(NCCNc3ccc(S(N)(=O)=O)c(C(F)(F)F)c3)nc(N)n2)c1C` [Example 29, 4-[(2-{[2-amino-6-(2,3-dimethylphenyl)pyrimidin-4-yl]amino}ethyl)amino]-2-(trifluoromethyl)benzene-1-sulfonamide], the pIC50 with cancer cell is > 6.30; on MTH1, > 6.70.
The corresponding values for `Cc1cccc(-c2cc(NCCNc3ccc(C(N)=O)cc3)nc(N)n2)c1C` [Example 30, 4-[(2-{[2-amino-6-(2,3-dimethylphenyl)pyrimidin-4-yl]amino}ethyl)amino]benzamide] are > 6.30 and > 6.70.
Regarding `CCOC(=O)Nc1ccc(CCNc2cc(-c3cccc(C)c3C)nc(N)n2)cc1` [Example 31, ethyl N-[4-(2-{[2-amino-6-(2,3-dimethylphenyl)pyrimidin-4-yl]amino}ethyl)phenyl]carbamate], the pIC50 with cancer cell was > 6.30; at MTH1 it was > 6.70.
In the same order, the values of `COc1ccc(NCCNc2cc(-c3cccc(C)c3C)nc(N)n2)cc1S(N)(=O)=O` [Example 32, 5-[(2-{[2-amino-6-(2,3-dimethylphenyl)pyrimidin-4-yl]amino}ethyl)amino]-2-methoxybenzene-1-sulfonamide] are > 6.30 and > 6.70.
Turning to `Cc1c(Cl)cccc1-c1cc(NCCNc2ccc3c(c2)NC(=O)CO3)nc(N)n1` [Example 35, 6-[(2-{[2-amino-6-(3-chloro-2-methylphenyl)pyrimidin-4-yl]amino}ethyl)amino]-3,4-dihydro-2H-1,4-benzoxazin-3-one], the pIC50 is > 6.30 in the assay with cancer cell and > 6.70 against MTH1.
In the same order, the values of `Cc1nc2ccc(NCCNc3cc(-c4cccc(C)c4C)nc(N)n3)cc2s1` [Example 36, 6-(2,3-dimethylphenyl)-4-N-{2-[(2-methyl-1,3-benzothiazol-6-yl)amino]ethyl}pyrimidine-2,4-diamine] are > 6.30 and > 6.70.
In the same order, the values of `Nc1nc(NCCNc2ccc3c(c2)NC(=O)CO3)cc(-c2cccc(Cl)c2Cl)n1` [Example 38, 6-[(2-{[2-amino-6-(2,3-dichlorophenyl)pyrimidin-4-yl]amino}ethyl)amino]-3,4-dihydro-2H-1,4-benzoxazin-3-one] are > 6.30 and > 6.70.
The corresponding values for `Cc1nc2ccc(NCCNc3cc(-c4cccc(Cl)c4Cl)nc(N)n3)cc2s1` [Example 39, 6-(2,3-dichlorophenyl)-4-N-{2-[(2-methyl-1,3-benzothiazol-6-yl)amino]ethyl}pyrimidine-2,4-diamine] are > 6.30 and > 6.70.
Consider `Cc1cccc(-c2cc(NCCNc3cccc(S(C)(=O)=O)c3)nc(N)n2)c1C` [Example 40, 6-(2,3-dimethylphenyl)-4-N-{2-[(3-methanesulfonylphenyl)amino]ethyl}pyrimidine-2,4-diamine], for which the results for the pIC50 with cancer cell and against MTH1 were > 6.30 and > 6.70, respectively.
Consider `Cc1cccc(-c2cc(NCCNc3ccc(S(N)(=O)=O)cc3F)nc(N)n2)c1C` [Example 42, 4-[(2-{[2-amino-6-(2,3-dimethylphenyl)pyrimidin-4-yl]amino}ethyl)amino]-3-fluorobenzene-1-sulfonamide], for which the pIC50 is > 6.30 in the assay with cancer cell and > 6.70 on MTH1.
In the same order, the values of `Cc1c(Cl)cccc1-c1cc(NCCc2ccc(C(N)=O)cc2)nc(N)n1` [Example 43, 4-(2-{[2-amino-6-(3-chloro-2-methylphenyl)pyrimidin-4-yl]amino}ethyl)benzamide] are > 6.30 and > 6.70.
For `Nc1nc(NCCc2ccc(S(N)(=O)=O)cc2)cc(-c2cccc(Cl)c2CO)n1` [Example 218, 4-(2-(2-Amino-6-(3-chloro-2-(hydroxymethyl)phenyl)pyrimidin-4-ylamino)ethyl)benzenesulfonamide], at MTH1, the pIC50 is > 6.70.
